How the values were obtained:
3T3-L1 [1] = experiment: Induction of adiponectin protein secretion in mouse 3T3L1 cells at 3 uM on day 8 by ELISA relative to control; type: functional
3T3-L1 [2] = experiment: Induction of adipogenesis in mouse 3T3L1 cells assessed as increase in triglyceride level at 3 uM on day 8 relative to control; type: functional
3T3-L1 [3] = experiment: Induction of adipogenesis in mouse 3T3L1 cells assessed as increase in triglyceride level at 1 uM on day 8 relative to control; type: functional
3T3-L1 [4] = experiment: Induction of adipogenesis in mouse 3T3L1 cells assessed as increase in triglyceride level at 10 uM on day 8 relative to control; type: functional
3T3-L1 [5] = experiment: Induction of adipogenesis in mouse 3T3L1 cells assessed as increase in triglyceride level at 0.3 uM on day 8 relative to control; type: functional
3T3-L1 [6] = experiment: Induction of adiponectin protein secretion in mouse 3T3L1 cells at 10 uM on day 8 by ELISA relative to control; type: functional
3T3-L1 [7] = experiment: Effect on C/EBPbeta mRNA expression in mouse 3T3L1 cells at 10 uM on day 8 by RT-PCR relative to beta-actin mRNA expression; type: functional
3T3-L1 [8] = experiment: Effect on C/EBPdelta mRNA expression in mouse 3T3L1 cells at 10 uM on day 8 by RT-PCR relative to beta-actin mRNA expression; type: functional
3T3-L1 [9] = experiment: Effect on GlUT4 mRNA expression in mouse 3T3L1 cells at 30 uM on day 8 by RT-PCR relative to beta-actin mRNA expression; type: functional
3T3-L1 [10] = experiment: Effect on aP2 mRNA expression in mouse 3T3L1 cells at 30 uM on day 8 by RT-PCR relative to beta-actin mRNA expression; type: functional
3T3-L1 [11] = experiment: Induction of insulin-stimulated 2-deoxy-D- 2,6-[3H]-glucose uptake in differentiated mouse 3T3L1 cells at 30 uM compound treated for 20 mins with insulin by liquid scintillation counting (reference value: 100.0 %); type: functional
3T3-L1 [12] = experiment: Induction of insulin-stimulated 2-deoxy-D- 2,6-[3H]-glucose uptake in mouse 3T3L1 cells chronically treated at 30 uM by liquid scintillation counting (reference value: 100.0 %); type: functional
3T3-L1 [13] = experiment: Effect on C/EBPbeta mRNA expression in mouse 3T3L1 cells at 30 uM on day 8 by RT-PCR relative to beta-actin mRNA expression; type: functional
3T3-L1 [14] = experiment: Effect on C/EBPalpha mRNA expression in mouse 3T3L1 cells at 3 uM on day 8 by RT-PCR relative to beta-actin mRNA expression; type: functional
3T3-L1 [15] = experiment: Effect on aP2 mRNA expression in mouse 3T3L1 cells at 3 uM on day 8 by RT-PCR relative to beta-actin mRNA expression; type: functional
3T3-L1 [16] = experiment: Effect on aP2 mRNA expression in mouse 3T3L1 cells at 10 uM on day 8 by RT-PCR relative to beta-actin mRNA expression; type: functional
3T3-L1 [17] = experiment: Effect on PPARgamma2 mRNA expression in mouse 3T3L1 cells at 30 uM on day 8 by RT-PCR relative to beta-actin mRNA expression; type: functional
3T3-L1 [18] = experiment: Effect on adiponectin mRNA expression in mouse 3T3L1 cells at 10 uM on day 8 by RT-PCR relative to beta-actin mRNA expression; type: functional
3T3-L1 [19] = experiment: Effect on GlUT4 mRNA expression in mouse 3T3L1 cells at 3 uM on day 8 by RT-PCR relative to beta-actin mRNA expression; type: functional
3T3-L1 [20] = experiment: Effect on C/EBPalpha mRNA expression in mouse 3T3L1 cells at 10 uM on day 8 by RT-PCR relative to beta-actin mRNA expression; type: functional
3T3-L1 [21] = experiment: Effect on C/EBPbeta mRNA expression in mouse 3T3L1 cells at 3 uM on day 8 by RT-PCR relative to beta-actin mRNA expression; type: functional
3T3-L1 [22] = experiment: Effect on C/EBPalpha mRNA expression in mouse 3T3L1 cells at 30 uM on day 8 by RT-PCR relative to beta-actin mRNA expression; type: functional
3T3-L1 [23] = experiment: Induction of adipogenesis in mouse 3T3L1 cells assessed as increase in triglyceride level on day 8; type: functional, cell-based
3T3-L1 [24] = experiment: Induction of adiponectin protein secretion in mouse 3T3L1 cells at 1 uM on day 8 by ELISA relative to control; type: functional
3T3-L1 [25] = experiment: Induction of adipogenesis in mouse 3T3L1 cells assessed as increase in triglyceride level at 30 uM on day 8 relative to control; type: functional
3T3-L1 [26] = experiment: Effect on PPARgamma2 mRNA expression in mouse 3T3L1 cells at 3 uM on day 8 by RT-PCR relative to beta-actin mRNA expression; type: functional
3T3-L1 [27] = experiment: Induction of adiponectin protein secretion in mouse 3T3L1 cells at 30 uM on day 8 by ELISA relative to control; type: functional
3T3-L1 [28] = experiment: Effect on PPARgamma2 mRNA expression in mouse 3T3L1 cells at 10 uM on day 8 by RT-PCR relative to beta-actin mRNA expression; type: functional
3T3-L1 [29] = experiment: Induction of insulin-stimulated 2-deoxy-D- 2,6-[3H]-glucose uptake in differentiated mouse 3T3L1 cells at 10 uM compound treated for 20 mins with insulin by liquid scintillation counting (reference value: 100.0 %); type: functional
3T3-L1 [30] = experiment: Induction of insulin-stimulated 2-deoxy-D- 2,6-[3H]-glucose uptake in mouse 3T3L1 cells chronically treated at 1 uM by liquid scintillation counting (reference value: 100.0 %); type: functional
3T3-L1 [31] = experiment: Effect on GlUT4 mRNA expression in mouse 3T3L1 cells at 10 uM on day 8 by RT-PCR relative to beta-actin mRNA expression; type: functional
3T3-L1 [32] = experiment: Induction of insulin-stimulated 2-deoxy-D- 2,6-[3H]-glucose uptake in mouse 3T3L1 cells chronically treated at 10 uM by liquid scintillation counting (reference value: 100.0 %); type: functional
3T3-L1 [33] = experiment: Effect on adiponectin mRNA expression in mouse 3T3L1 cells at 3 uM on day 8 by RT-PCR relative to beta-actin mRNA expression; type: functional
3T3-L1 [34] = experiment: Effect on C/EBPdelta mRNA expression in mouse 3T3L1 adipocytes at 30 uM on day 8 by RT-PCR relative to beta-actin mRNA expression; type: functional
3T3-L1 [35] = experiment: Effect on adiponectin mRNA expression in mouse 3T3L1 cells at 30 uM on day 8 by RT-PCR relative to beta-actin mRNA expression; type: functional
3T3-L1 [36] = experiment: Effect on C/EBPdelta mRNA expression in mouse 3T3L1 cells at 3 uM on day 8 by RT-PCR relative to beta-actin mRNA expression; type: functional
3T3-L1 [37] = experiment: Cytotoxicity in mouse 3T3L1 cells assessed as reduction in triglyceride accumulation at 30 uM; type: cell-based; details: 3t3-l1, 30 µM
3T3-L1 [38] = experiment: Inhibition of insulin-stimulated 2-deoxy-D- 2,6-[3H]-glucose uptake in differentiated mouse 3T3L1 cells compound treated for 20 mins with insulin by liquid scintillation counting (reference value: 100.0 %); type: functional, cell-based

## Cc1c(C)c2c(c(C)c1O)CCC(C)(COc1ccc(CC3SC(=O)NC3=O)cc1)O2 (stereo not given) [TROGLITAZONE]
3T3-L1 [1]
  Activity: 166.4%
3T3-L1 [2]
  Activity: 34.6%
3T3-L1 [3]
  Activity: 35.8%
3T3-L1 [4]
  Activity: 28.1%
3T3-L1 [5]
  Activity: 31.9%

## COc1ccc(-c2oc3cc(OC)cc(OC)c3c(=O)c2OC)cc1 [TETRAMETHYLKAEMPFEROL]
3T3-L1 [6]
  Activity: 164.7%
3T3-L1 [7]
  Ratio: 1.89
3T3-L1 [1]
  Activity: 149.5%
3T3-L1 [8]
  Ratio: 1.23
3T3-L1 [9]
  Ratio: 2.61
3T3-L1 [10]
  Ratio: 2.24
3T3-L1 [11]
  Activity: 46%
3T3-L1 [12]
  Activity: 135.8%
3T3-L1 [13]
  Ratio: 3.14
3T3-L1 [14]
  Ratio: 1.88
3T3-L1 [15]
  Ratio: 1.53
3T3-L1 [16]
  Ratio: 2.02
3T3-L1 [17]
  Ratio: 2.11
3T3-L1 [18]
  Ratio: 2.05
3T3-L1 [19]
  Ratio: 2.38
3T3-L1 [20]
  Ratio: 2.08
3T3-L1 [21]
  Ratio: 1.34
3T3-L1 [2]
  Activity: 24.1%
3T3-L1 [22]
  Ratio: 1.82
3T3-L1 [23]
  Activity: Dose-dependent effect
3T3-L1 [24]
  Activity: 144.6%
3T3-L1 [25]
  Activity: 33.7%
3T3-L1 [26]
  Ratio: 1.67
3T3-L1 [27]
  Activity: 136.7%
3T3-L1 [3]
  Activity: 19.1%
3T3-L1 [28]
  Ratio: 1.81
3T3-L1 [4]
  Activity: 28.2%
3T3-L1 [29]
  Activity: 62.7%
3T3-L1 [5]
  Activity: 10.1%
3T3-L1 [30]
  Activity: 146.5%
3T3-L1 [31]
  Ratio: 2.54
3T3-L1 [32]
  Activity: 163.1%
3T3-L1 [33]
  Ratio: 1.81
3T3-L1 [34]
  Ratio: 0.77
3T3-L1 [35]
  Ratio: 2.9
3T3-L1 [36]
  Ratio: 0.89

## COc1ccc(-c2cc(=O)c3c(OC)cc(OC)cc3o2)cc1 [TRIMETHYLAPIGENIN]
3T3-L1 [37]
  Activity: Toxic
3T3-L1 [2]
  Activity: 14.1%
3T3-L1 [25]
  Activity: -83%
3T3-L1 [3]
  Activity: 16.7%
3T3-L1 [4]
  Activity: -17.2%
3T3-L1 [5]
  Activity: 5.6%

## O=c1c(O)c(-c2ccccc2)oc2ccccc12 [FLAVONOL]
3T3-L1 [37]
  Activity: Toxic
3T3-L1 [2]
  Activity: -10%
3T3-L1 [25]
  Activity: -31.6%
3T3-L1 [3]
  Activity: -12.6%
3T3-L1 [4]
  Activity: -17.6%

## O=c1c(O)c(-c2ccc(O)cc2)oc2cc(O)cc(O)c12 [KAEMPFEROL]
3T3-L1 [11]
  Activity: 12.7%
3T3-L1 [2]
  Activity: 5.9%
3T3-L1 [25]
  Activity: 3.7%
3T3-L1 [3]
  Activity: 6.2%
3T3-L1 [4]
  Activity: 0.3%
3T3-L1 [29]
  Activity: 30.3%
3T3-L1 [38]
  inhibition: Dose-dependent effect

## COc1cc(OC)c2c(=O)cc(-c3ccccc3)oc2c1 [CHRYSIN DIMETHYL ETHER]
3T3-L1 [37]
  Activity: Toxic
3T3-L1 [2]
  Activity: 3.4%
3T3-L1 [25]
  Activity: -88.1%
3T3-L1 [3]
  Activity: 7.5%
3T3-L1 [4]
  Activity: 6.3%

## COc1ccc(-c2oc3cc(OC)cc(O)c3c(=O)c2OC)cc1
3T3-L1 [6]
  Activity: 123.3%
3T3-L1 [1]
  Activity: 125.3%
3T3-L1 [11]
  Activity: 60.1%
3T3-L1 [12]
  Activity: 113.6%
3T3-L1 [2]
  Activity: 20.8%
3T3-L1 [23]
  Activity: Dose-dependent effect
3T3-L1 [24]
  Activity: 119.7%
3T3-L1 [25]
  Activity: 23%
3T3-L1 [27]
  Activity: 131.9%
3T3-L1 [3]
  Activity: 21.7%
3T3-L1 [4]
  Activity: 22.5%
3T3-L1 [29]
  Activity: 69.8%
3T3-L1 [5]
  Activity: 9.3%
3T3-L1 [30]
  Activity: 108.5%
3T3-L1 [32]
  Activity: 118.9%

## COc1cc(OC)c2c(=O)c(OC)c(-c3ccc(OC)c(OC)c3)oc2c1
3T3-L1 [6]
  Activity: 131.4%
3T3-L1 [7]
  Ratio: 3.01
3T3-L1 [1]
  Activity: 156.8%
3T3-L1 [8]
  Ratio: 1.93
3T3-L1 [9]
  Ratio: 3.62
3T3-L1 [10]
  Ratio: 2.1
3T3-L1 [11]
  Activity: 35.9%
3T3-L1 [12]
  Activity: 127.3%
3T3-L1 [13]
  Ratio: 3.82
3T3-L1 [14]
  Ratio: 1.79
3T3-L1 [15]
  Ratio: 1.34
3T3-L1 [16]
  Ratio: 1.59
3T3-L1 [17]
  Ratio: 2.42
3T3-L1 [18]
  Ratio: 1.91
3T3-L1 [19]
  Ratio: 2.01
3T3-L1 [20]
  Ratio: 1.5
3T3-L1 [21]
  Ratio: 1.73
3T3-L1 [2]
  Activity: 26.2%
3T3-L1 [22]
  Ratio: 1.38
3T3-L1 [23]
  Activity: Dose-dependent effect
3T3-L1 [24]
  Activity: 137.8%
3T3-L1 [25]
  Activity: 27.4%
3T3-L1 [26]
  Ratio: 1.84
3T3-L1 [27]
  Activity: 128.1%
3T3-L1 [3]
  Activity: 17.7%
3T3-L1 [28]
  Ratio: 1.99
3T3-L1 [4]
  Activity: 27%
3T3-L1 [29]
  Activity: 65.5%
3T3-L1 [5]
  Activity: 9.4%
3T3-L1 [30]
  Activity: 129.9%
3T3-L1 [31]
  Ratio: 2.25
3T3-L1 [32]
  Activity: 152.9%
3T3-L1 [33]
  Ratio: 1.67
3T3-L1 [34]
  Ratio: 2.34
3T3-L1 [35]
  Ratio: 2.59
3T3-L1 [36]
  Ratio: 1.54

## O=c1cc(-c2ccc(O)c(O)c2)oc2cc(O)cc(O)c12 [LUTEOLIN]
3T3-L1 [37]
  Activity: Toxic
3T3-L1 [2]
  Activity: -6.4%
3T3-L1 [25]
  Activity: -41.3%
3T3-L1 [3]
  Activity: 3.9%
3T3-L1 [4]
  Activity: -14.2%

Reference: ChEMBL document CHEMBL1772964, “Structural requirements of flavonoids for the adipogenesis of 3T3-L1 cells” (Bioorg Med Chem, 2011)
